We go through two compounds from patent publication US9862718B2, “Sodium salt of (2S, 5R)-6-benzyloxy-7-oxo-1,6-diaza-bicyclo [3.2.1] octane-2-carboxylic acid and its preparation” (WOCKHARDT LIMITED, priority 2013, dated 2018).

Common to all, as to assay type: physicochemical
A short description of series [1]: stability study on storage at room temperature (purity by HPLC).
Series [2] is described as follows: hygroscopicity of the isolated solid. To be noted: isolated solid material, compared with the corresponding free acid. As for the experimental part:
(1) The compound of Formula (I) is isolable as a highly pure solid material (purity of about at least 98% as determined by HPLC) and is a non-hygroscopic material as compared with the corresponding free acid (compound of Formula (V), which is obtained as syrupy material).
The precipitated solid was filtered under suction and the wet cake was washed with chilled acetone (400 ml). The non-hygroscopic solid was dried under vacuum at 40° C. for 1 hour to provide off-white colored material (sodium salt of (2S,5R)-6-benzyloxy-7-oxo-1,6-diaza-bicyclo{3.2.1}-octane-2-carboxylic acid) in 135 gm (89%, calculation adjusted for 70% purity of free acid) quantity.

A short description of series [3]: stability of the free acid on storage (attempts to prepare this compound). To be noted: syrupy in nature. The text has this: The compound of Formula (V) i.e. (2S,5R)-6-benzyloxy-7-oxo-1,6-diaza-bicyclo[3.2.1]octane-2-carboxylic acid is disclosed in International Patent Application No. PCT/FR01/02418. […] US Patent Publication No. 20100197928 discloses a procedure to prepare a diastereomeric mixture of (S)-5-benzyloxyamino-piperidin-2-carboxylic acid benzyl ester as an oxalate salt in 50:50 ratio.

As for `O=C([O-])[C@@H]1CC[C@@H]2CN1C(=O)N2OCc1ccccc1.[Na+]` [Formula (I), sodium salt of (2S,5R)-6-benzyloxy-7-oxo-1,6-diaza-bicyclo[3.2.1]octane-2-carboxylic acid], in series [1] (stability study, room temperature, initial), the “purity as analyzed by HPLC, initial purity” value turned out to be 99.75%. Further, in series [1] (storage at room temperature for three months), the stability on storage result is “excellent stability”. In addition, the “purity as analyzed by HPLC, purity after three months” value in series [1] (storage at room temperature, after three months) is recorded as 99.66%. In addition, the “purity as analyzed by HPLC, purity after two moths” value in series [1] (storage at room temperature, after two moths) was 99.69%. The hygroscopicity result in series [2] is listed as “non-hygroscopic”.

Consider `O=C(O)[C@@H]1CC[C@@H]2CN1C(=O)N2OCc1ccccc1` [Formula (V), (2S,5R)-6-benzyloxy-7-oxo-1,6-diaza-bicyclo[3.2.1]octane-2-carboxylic acid], for which the stability on storage result in series [3] is listed as “unstable”.
